Experimental data from patent US4703048A, “Novel 1-benzhydryl-4-cinnamylpiperazine derivatives, and pharmaceutical compositions comprising said compounds as active ingredient for treating a cerebrovascular disease” (Kanebo Ltd., priority 1985, dated 1987).
Structures can show the parent of a compound that is named as a salt.

How the values were obtained:
vertebral blood flow [1] = experiment: Activity of increasing cerebral blood flow (vertebral blood flow), intravenous administration in anesthetized dogs; assay type: in vivo; settings: Canis lupus familiaris; 0.03 to 0.3 mg/kg intravenous, anesthetized mongrel dogs; calculated from the regression line; read-out: VBF-ED50 (dose which increased the cerebral blood flow by 50%)
in vivo = settings: mouse, oral, ddY-strain male mice, fasted 24 hours, deaths during seven days, Weil method, read-out: Acute toxicity LD50
Description: ddY-strain male mice (body weight 18 to 22 g; five per group) were caused to fast 24 hours. Then, each of the test compounds was administered orally, and acute toxicity values (LD50) were determined.
Each of the compounds was dissolved or suspended in a 2% tartaric acid solution containing 20% of dimethylacetamide, and orally administered to the animals. From the number of animals which died during seven days, the LD50 values were calculated by using the Weil method.

vertebral blood flow [2] = experiment: Activity of increasing cerebral blood flow (vertebral blood flow), intravenous administration in anesthetized dogs; assay type: in vivo; settings: 0.3 mg/kg, injected into femoral vein, anesthetized mongrel dogs
Description: The activity of increasing cerebral blood flow was measured by using the amount of vertebral blood flow as an index. Mongrel dogs of either sex (body weight 11 to 14 kg; four per group) were anesthetized with sodium pentobarbital (30 mg/kg, by intravenous injection), and the right vertebral artery was isolated from the surrounding tissues. A flow probe was attached to it and led to an electromagnetic flow meter (MFV-2100 made by Nihon Kohden Co., Ltd.). The amount of blood flow was periodically measured [see Meth and Find Exptl Clin Pharmacol, 3 (6), 397 (1981)]. Each of the test compounds was dissolved in a 2% tartaric acid solution containing 20% dimethylacetamide, and injected into the right femoral vein.
Furthermore, each of the test compounds was administered in a dose of 0.3 mg/kg, and increases (%) in vertebral blood flow were determined 1, 5, 10 and 20 minutes after the administration.

vertebral blood flow [3] = experiment: Activity to increase cerebral blood flow (vertebral blood flow), intraduodenal administration in dogs; assay type: in vivo; settings: 1 mg/kg intraduodenal, mongrel dogs
Description: The activity of compound A of the invention to increase cerebral blood flow was examined by intraduodenal administration.
Compound A was dissolved in a 2% tartaric acid solution containing 20% dimethylacetamide, and administered intraduodenally to mongrel dogs of either sex (body weight 11-18 kg, five per group) in a dose of 1 mg/kg.
At 10, 30, 60, 120, 180 and 240 minutes after the administration, the increase (%) of vertebral blood flow was measured in the same way as in Test Example 1.

[4] = 10 minutes after administration
[5] = 20 minutes after administration

Structure (SMILES)	ED50 (vertebral blood flow [1]) [mg/kg]	LD50 at 168 h (in vivo) [mg/kg]	Increase (%) in vertebral blood flow (mean ± standard error) (vertebral blood flow [2]; 1 minute after administration) [%]	Increase (%) in vertebral blood flow (mean ± standard error) (vertebral blood flow [2]; 5 minutes after administration) [%]	Increase (%) in vertebral blood flow (mean ± standard error) (vertebral blood flow [2]; [4]) [%]	Increase (%) in vertebral blood flow (mean ± standard error) (vertebral blood flow [2]; [5]) [%]	Increase (%) of vertebral blood flow (mean ± standard error) (vertebral blood flow [3]; [4]) [%]	Increase (%) of vertebral blood flow (mean ± standard error) (vertebral blood flow [3]; 30 minutes after administration) [%]	Increase (%) of vertebral blood flow (mean ± standard error) (vertebral blood flow [3]; 60 minutes after administration) [%]	Increase (%) of vertebral blood flow (mean ± standard error) (vertebral blood flow [3]; 120 minutes after administration) [%]	Increase (%) of vertebral blood flow (mean ± standard error) (vertebral blood flow [3]; 180 minutes after administration) [%]	Increase (%) of vertebral blood flow (mean ± standard error) (vertebral blood flow [3]; 240 minutes after administration) [%]
COc1ccc(C=CCN2CCN(C(c3ccccc3)c3ccccc3)CC2)c(OC)c1OC.Cl.Cl [B, 1-Benzhydryl-4-(2,3,4-trimethoxycinnamyl) piperazine dihydrochloride]	0.12	841	76 ± 14	58 ± 12	41 ± 7	26 ± 4	–	–	–	–	–	–
COc1ccc(C=CCN2CCN(C(c3ccc(F)cc3)c3ccc(F)cc3)CC2)c(OC)c1.O=C(O)/C=C/C(=O)O [C, 1-[Bis(4-fluorophenyl)methyl]-4-(2,4-dimethoxycinnamyl)piperazine fumarate]	0.08	102	83 ± 12	92 ± 10	71 ± 7	50 ± 7	–	–	–	–	–	–
C(=Cc1ccccc1)CN1CCN(C(c2ccccc2)c2ccccc2)CC1 [Cinnarizine, reference compound]	–	–	40 ± 10	5 ± 4	2 ± 2	2 ± 4	–	–	–	–	–	–
COc1ccc(C=CCN2CCN(C(c3ccc(F)cc3)c3ccc(F)cc3)CC2)c(OC)c1OC.Cl.Cl [Compound A, 1-[Bis(4-fluorophenyl)methyl]-4-(2,3,4-trimethoxycinnamyl)piperazine dihydrochloride]	0.06	185	107 ± 17	137 ± 39	134 ± 40	120 ± 38	6.2 ± 1.8	51.0 ± 18.6	149.3 ± 48.0	150.9 ± 38.2	98.8 ± 24.2	55.1 ± 17.2
COc1ccc(C=CCN2CCN(C(c3ccccc3)c3ccccc3)CC2)c(OC)c1.O=C(O)/C=C/C(=O)O [D, 1-Benzhydryl-4-(2,4-dimethoxycinnamyl) piperazine fumarate]	0.18	773	66 ± 11	51 ± 10	27 ± 7	18 ± 6	–	–	–	–	–	–
Fc1ccc(C(c2ccc(F)cc2)N2CCN(CC=Cc3ccccc3)CC2)cc1 [Flunarizine dihydrochloride, reference compound]	> 0.3	–	53 ± 20	20 ± 12	11 ± 7	10 ± 6	–	–	–	–	–	–
